Results on two molecules are retold here after patent US9433595B2, “Phytoestrogenic compositions for preventing or treating symptoms associated with menopause” (Natural Endotech Co., Ltd., priority 2008, dated 2016).

In the assay the test system is SaOS-2 cells. Nature of the assay: Estrogen-specific ALP (alkaline phosphatase) induction in SaOS-2 osteoblast cells. Conditions: conclusion drawn from ALP induction in SaOS-2 cells. The format is cell-based. Here is the method:
To verify the effect of the compound of the present invention, non-reproductive tract target tissue response was carried out for measuring estrogenecity. […]
In this regard, the estrogenic activity of the compounds of the experimental groups as described above in the Example 1 was analyzed using SaOS-2 cells in this study.
For experiments, SaOS-2 cell line was purchased from Korean Type Culture Collection (KTCC). […] Thereafter, 50 μl of cell lysis buffer (100 mM Tris, 100 mM NaCl, 1 mM EDTA) was added to the culture media of each well and then, 150 μl of 30 mM p-nitrophenyl phosphate (Merk, Germany) was thoroughly mixed with shaking, followed by measuring the absorbance at 405 nm for 10 min at an interval of 50 sec. ALP induction was calculated as follows: % induction=[(Slopesample)/(Slope17β-estradiol)]×100. […]

Turning to `O=C(O)/C=C/c1ccccc1` [cinnamic acid], the estrogenic activity entry is given as “remarkable estrogenic activity”.
As to `COC(=O)C1=CO[C@@H](O[C@H]2O[C@@H](CO)[C@H](O)[C@@H](O)[C@@H]2O)C2C1[C@H](O)C[C@]2(C)O` (some centres unmarked) [shanzhiside methylester], the estrogenic activity entry is listed as “remarkable estrogenic activity”.
